Measurements as given in PMC7180948, “New Insights into 4-Anilinoquinazolines as Inhibitors of Cardiac Troponin I–Interacting Kinase (TNNi3K)” (Molecules, 2020).

Assays:
Assay in all cases: biochemical
Design in all cases: KINOMEscan competition binding panel (Eurofins DiscoverX), single concentration, % inhibition
Settings in all cases: read-out: 7 at 1 µM % inhibition
DDR2 = DDR2 (Homo sapiens, UniProt Q16832)
Method in brief: (§1)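 KINOMEscan selectivity screen; >400 human kinases; compound at 1 µM, single concentration.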

CAMK2A = CAMK2A (Homo sapiens, UniProt Q9UQM7)
Method in brief: as §1

FLT3-autoinhibited = FLT3-autoinhibited (Homo sapiens, UniProt P36888)
Method in brief: as §1

GRK2 = GRK2 (Homo sapiens, UniProt P25098)
Method in brief: as §1

IKK-epsilon = target: T1, IKK-epsilon (Homo sapiens, UniProt Q14164)
T1 construct: gene IKBKE
Method in brief: as §1

[1] = target: T2, ABL1(Q252H)-phosphorylated (Homo sapiens, UniProt P00519, Q252H)
T2 construct: phosphorylated
Method in brief: as §1

PRP4 = target: T3, PRP4 (Homo sapiens, UniProt Q13523)
T3 construct: gene PRPF4B
Method in brief: as §1

ERK3 = target: T4, ERK3 (Homo sapiens, UniProt Q16659)
T4 construct: gene MAPK6
Method in brief: as §1

CAMK2B = CAMK2B (Homo sapiens, UniProt Q13554)
Method in brief: as §1

PIM3 = PIM3 (Homo sapiens, UniProt Q86V86)
Method in brief: as §1

BRAF(V600E) = BRAF(V600E) (Homo sapiens, UniProt P15056, V600E)
Method in brief: as §1

TIE2 = target: T5, TIE2 (Homo sapiens, UniProt Q02763)
T5 construct: gene TEK
Method in brief: as §1

PLK4 = PLK4 (Homo sapiens, UniProt O00444)
Method in brief: as §1

PIK3CA(Q546K) = PIK3CA(Q546K) (Homo sapiens, UniProt P42336, Q546K)
Method in brief: as §1

SIK2 = SIK2 (Homo sapiens, UniProt Q9H0K1)
Method in brief: as §1

FLT3 = FLT3 (Homo sapiens, UniProt P36888)
Method in brief: as §1

ERK5 = target: T6, ERK5 (Homo sapiens, UniProt Q13164)
T6 construct: gene MAPK7
Method in brief: as §1

CSNK1E = CSNK1E (Homo sapiens, UniProt P49674)
Method in brief: as §1

MST1R = MST1R (Homo sapiens, UniProt Q04912)
Method in brief: as §1

ACVR2B = ACVR2B (Homo sapiens, UniProt Q13705)
Method in brief: as §1

KIT(V559D) = KIT(V559D) (Homo sapiens, UniProt P10721, V559D)
Method in brief: as §1

HPK1 = target: T7, HPK1 (Homo sapiens, UniProt Q92918)
T7 construct: gene MAP4K1
Method in brief: as §1

[2] = target: T8, ABL1(Q252H)-nonphosphorylated (Homo sapiens, UniProt P00519, Q252H)
T8 construct: nonphosphorylated
Method in brief: as §1

AKT3 = AKT3 (Homo sapiens, UniProt Q9Y243)
Method in brief: as §1

T1 sequence (Q14164 whole entry): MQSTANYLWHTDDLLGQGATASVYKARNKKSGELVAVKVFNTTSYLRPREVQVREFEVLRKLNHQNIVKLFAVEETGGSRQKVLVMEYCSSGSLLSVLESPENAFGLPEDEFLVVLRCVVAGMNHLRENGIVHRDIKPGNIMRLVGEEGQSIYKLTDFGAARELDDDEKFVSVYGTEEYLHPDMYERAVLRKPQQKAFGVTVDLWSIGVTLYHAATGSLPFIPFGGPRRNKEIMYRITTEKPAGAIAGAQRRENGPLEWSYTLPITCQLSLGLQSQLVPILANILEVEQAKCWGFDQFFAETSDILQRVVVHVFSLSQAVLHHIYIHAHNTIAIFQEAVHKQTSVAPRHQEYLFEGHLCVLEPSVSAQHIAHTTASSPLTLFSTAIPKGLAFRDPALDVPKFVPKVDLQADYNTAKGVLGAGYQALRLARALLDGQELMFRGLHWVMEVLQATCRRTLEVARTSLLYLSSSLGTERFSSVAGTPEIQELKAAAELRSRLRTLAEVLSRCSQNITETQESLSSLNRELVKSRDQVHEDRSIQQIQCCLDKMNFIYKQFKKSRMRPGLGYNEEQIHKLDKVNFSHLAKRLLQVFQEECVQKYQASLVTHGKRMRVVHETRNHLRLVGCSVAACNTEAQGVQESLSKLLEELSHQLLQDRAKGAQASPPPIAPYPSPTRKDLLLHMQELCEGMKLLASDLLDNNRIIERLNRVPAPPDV
T5 sequence (Q02763 whole entry): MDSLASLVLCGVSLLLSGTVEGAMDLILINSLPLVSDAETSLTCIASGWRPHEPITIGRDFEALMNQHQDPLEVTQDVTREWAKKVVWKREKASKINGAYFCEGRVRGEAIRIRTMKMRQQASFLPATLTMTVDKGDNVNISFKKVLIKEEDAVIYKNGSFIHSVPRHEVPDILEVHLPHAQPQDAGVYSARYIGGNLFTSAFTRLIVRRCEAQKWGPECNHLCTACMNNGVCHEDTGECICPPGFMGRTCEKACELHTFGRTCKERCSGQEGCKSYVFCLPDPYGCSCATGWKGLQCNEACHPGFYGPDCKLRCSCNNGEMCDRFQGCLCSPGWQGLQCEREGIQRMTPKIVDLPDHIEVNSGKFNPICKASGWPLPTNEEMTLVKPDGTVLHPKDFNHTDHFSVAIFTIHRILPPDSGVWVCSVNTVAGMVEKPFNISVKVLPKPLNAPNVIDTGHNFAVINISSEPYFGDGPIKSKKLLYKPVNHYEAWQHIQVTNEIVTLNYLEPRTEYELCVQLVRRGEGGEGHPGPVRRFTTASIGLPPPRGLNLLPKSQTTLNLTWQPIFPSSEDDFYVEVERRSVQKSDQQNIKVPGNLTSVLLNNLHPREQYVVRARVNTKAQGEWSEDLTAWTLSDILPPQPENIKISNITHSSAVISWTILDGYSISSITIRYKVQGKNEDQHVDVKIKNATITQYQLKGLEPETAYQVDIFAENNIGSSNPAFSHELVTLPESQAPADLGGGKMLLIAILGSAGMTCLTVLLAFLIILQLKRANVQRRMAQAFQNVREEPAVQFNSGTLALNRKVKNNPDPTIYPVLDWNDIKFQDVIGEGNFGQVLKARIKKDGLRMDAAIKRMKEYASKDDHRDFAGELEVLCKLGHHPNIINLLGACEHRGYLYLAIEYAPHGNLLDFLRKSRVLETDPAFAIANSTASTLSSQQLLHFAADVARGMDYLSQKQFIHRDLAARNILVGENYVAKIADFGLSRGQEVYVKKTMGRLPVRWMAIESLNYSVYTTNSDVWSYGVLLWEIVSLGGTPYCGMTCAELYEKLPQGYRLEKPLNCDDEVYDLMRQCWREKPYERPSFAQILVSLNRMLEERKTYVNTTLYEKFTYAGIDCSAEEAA
Chain of ACVR2B (Q13705 whole entry): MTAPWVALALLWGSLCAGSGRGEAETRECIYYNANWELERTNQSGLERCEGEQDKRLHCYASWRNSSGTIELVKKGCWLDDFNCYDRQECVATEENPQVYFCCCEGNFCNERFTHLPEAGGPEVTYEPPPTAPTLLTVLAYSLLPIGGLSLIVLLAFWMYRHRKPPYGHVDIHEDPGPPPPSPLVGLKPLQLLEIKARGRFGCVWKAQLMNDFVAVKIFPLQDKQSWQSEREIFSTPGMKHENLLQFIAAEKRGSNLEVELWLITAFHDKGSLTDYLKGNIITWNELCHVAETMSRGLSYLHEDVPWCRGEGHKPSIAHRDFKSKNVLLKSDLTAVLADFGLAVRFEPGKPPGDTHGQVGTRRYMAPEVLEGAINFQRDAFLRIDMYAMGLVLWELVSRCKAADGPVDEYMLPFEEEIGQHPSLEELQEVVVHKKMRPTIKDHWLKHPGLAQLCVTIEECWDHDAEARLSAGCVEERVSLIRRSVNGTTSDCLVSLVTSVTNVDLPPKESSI
Chain of CSNK1E (P49674 whole entry): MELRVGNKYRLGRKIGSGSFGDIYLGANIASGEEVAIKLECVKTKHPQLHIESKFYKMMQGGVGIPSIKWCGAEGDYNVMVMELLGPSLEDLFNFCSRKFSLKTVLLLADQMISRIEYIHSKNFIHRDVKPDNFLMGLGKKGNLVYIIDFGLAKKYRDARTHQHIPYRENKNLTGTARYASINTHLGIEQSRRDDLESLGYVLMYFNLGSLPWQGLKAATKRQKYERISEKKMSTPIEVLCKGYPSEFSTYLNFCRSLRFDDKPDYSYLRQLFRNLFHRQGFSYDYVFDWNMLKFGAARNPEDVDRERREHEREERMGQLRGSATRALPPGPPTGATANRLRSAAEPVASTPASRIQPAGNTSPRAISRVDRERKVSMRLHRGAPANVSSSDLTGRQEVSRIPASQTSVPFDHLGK
Chain of CAMK2B (Q13554 whole entry): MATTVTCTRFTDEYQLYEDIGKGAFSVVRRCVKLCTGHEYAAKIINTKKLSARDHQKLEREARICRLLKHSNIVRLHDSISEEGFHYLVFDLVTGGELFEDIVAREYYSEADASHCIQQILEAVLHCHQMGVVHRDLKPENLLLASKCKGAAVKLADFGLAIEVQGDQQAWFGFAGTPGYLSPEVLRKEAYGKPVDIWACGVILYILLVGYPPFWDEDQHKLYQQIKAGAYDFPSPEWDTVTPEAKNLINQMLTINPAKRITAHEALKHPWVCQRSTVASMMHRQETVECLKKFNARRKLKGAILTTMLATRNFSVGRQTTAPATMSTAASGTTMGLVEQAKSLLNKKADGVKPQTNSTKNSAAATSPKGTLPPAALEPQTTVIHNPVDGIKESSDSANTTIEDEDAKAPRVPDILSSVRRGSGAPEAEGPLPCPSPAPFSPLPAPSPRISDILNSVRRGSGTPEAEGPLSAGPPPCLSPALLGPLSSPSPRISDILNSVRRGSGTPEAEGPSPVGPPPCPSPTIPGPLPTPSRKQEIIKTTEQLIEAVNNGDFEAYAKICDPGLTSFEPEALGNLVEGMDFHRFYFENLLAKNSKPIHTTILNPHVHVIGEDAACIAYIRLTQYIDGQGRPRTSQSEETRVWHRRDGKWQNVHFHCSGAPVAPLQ
T7 sequence (Q92918 whole entry): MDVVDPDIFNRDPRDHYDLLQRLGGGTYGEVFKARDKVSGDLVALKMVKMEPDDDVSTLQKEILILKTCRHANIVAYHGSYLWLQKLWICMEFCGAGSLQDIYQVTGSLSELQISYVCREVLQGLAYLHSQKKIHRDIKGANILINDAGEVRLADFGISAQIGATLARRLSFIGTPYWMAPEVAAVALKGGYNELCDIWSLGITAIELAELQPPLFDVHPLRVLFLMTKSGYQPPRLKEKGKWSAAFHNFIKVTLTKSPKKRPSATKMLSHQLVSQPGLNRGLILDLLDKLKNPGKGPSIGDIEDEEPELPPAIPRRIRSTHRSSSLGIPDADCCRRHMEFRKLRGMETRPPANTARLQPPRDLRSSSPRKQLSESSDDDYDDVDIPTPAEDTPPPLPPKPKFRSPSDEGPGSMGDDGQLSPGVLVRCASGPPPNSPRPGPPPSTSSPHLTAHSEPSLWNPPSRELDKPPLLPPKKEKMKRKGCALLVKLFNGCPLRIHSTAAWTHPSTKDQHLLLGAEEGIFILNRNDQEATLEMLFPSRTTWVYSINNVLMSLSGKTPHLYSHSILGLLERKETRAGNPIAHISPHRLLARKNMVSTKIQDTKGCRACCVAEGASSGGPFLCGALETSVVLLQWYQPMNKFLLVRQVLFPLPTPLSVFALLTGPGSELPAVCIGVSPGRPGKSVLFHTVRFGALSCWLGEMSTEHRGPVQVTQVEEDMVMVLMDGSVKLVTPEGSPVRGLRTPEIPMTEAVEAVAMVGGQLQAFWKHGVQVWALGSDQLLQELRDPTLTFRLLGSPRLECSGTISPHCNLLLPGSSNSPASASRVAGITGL

Compound: CNS(=O)(=O)c1ccc(N(C)C)c(Nc2ncnc3cc(OC)c(OC)cc23)c1 [compound 7, 3-((6,7-dimethoxyquinazolin-4-yl)amino)-4-(dimethylamino)-N-methylbenzenesulfonamide]
- inhibition at 1 µM (DDR2): 41%
- inhibition at 1 µM (CAMK2A): 9%
- inhibition at 1 µM (FLT3-autoinhibited): 12%
- inhibition at 1 µM (GRK2): 65%
- inhibition at 1 µM (IKK-epsilon): 18%
- inhibition at 1 µM [1]: 79%
- inhibition at 1 µM (PRP4): 24%
- inhibition at 1 µM (ERK3): 0%
- inhibition at 1 µM (CAMK2B): 11%
- inhibition at 1 µM (PIM3): 0%
- inhibition at 1 µM (BRAF(V600E)): 83%
- inhibition at 1 µM (TIE2): 0%
- inhibition at 1 µM (PLK4): 7%
- inhibition at 1 µM (PIK3CA(Q546K)): 36%
- inhibition at 1 µM (SIK2): 69%
- inhibition at 1 µM (FLT3): 7%
- inhibition at 1 µM (ERK5): 6%
- inhibition at 1 µM (CSNK1E): 0%
- inhibition at 1 µM (MST1R): 3%
- inhibition at 1 µM (ACVR2B): 6%
- inhibition at 1 µM (KIT(V559D)): 28%
- inhibition at 1 µM (HPK1): 0%
- inhibition at 1 µM [2]: 50%
- inhibition at 1 µM (AKT3): 0%
